# Test results: patent US12336977B2, “Nitenin analogue compounds and their use in the treatment of chronic and acute pain” (SEA4US-BIOTECNOLOGIA E RECURSOS MARINHOS, LDA., priority 2019, dated 2025)
# Key:
# [1] = tested on: CIPN rats (paclitaxel); experiment: chemotherapy-induced peripheral neuropathy rat model CIPN, von Frey filaments; type: in vivo; conditions: I.V.; 42 days after paclitaxel
# Method: […]
# (§1) For efficacy studies, nociception was assessed in all animals from all pain models by regular behavioural monitoring, by quantifying the sensitivity to mechanical stimuli with Von Frey filaments, and consequently reflecting hyperalgesia when hypersensitive. […] Intraperitoneal administration was tested in CFA rats (23 days after CFA injection), with 10 times the nitenin quantity administered by I.V. injections. […] Oral administration of nitenin through stomach gavages (endogastric), with 100 times the quantity administered by I.V. injections, was tested in CCI rats (31 days after surgery). […]
# [2] = tested on: Naïve Wistar control rats; experiment: naive Wistar controls, von Frey filaments; type: in vivo, rat; conditions: I.V. injections
# Method: […]
# as §1
# [3] = tested on: K+ currents of small diameter trigeminal ganglion neurons (sdTGNs); experiment: whole-cell voltage-clamp of K+ currents in sdTGNs; type: cell-based, rat
# Method: The nitenin analogue compounds of the present application were first obtained from the marine sponge Spongia agaracina captured in Sagres, Portugal, but have also been chemically synthesized.
# For the electrophysiological recordings of the ex vivo material, voltage-clamp recordings were performed on neurons isolated from rat DRGs (and TGs). Recordings were performed from the soma that often contained the proximal fraction of axon, 1 hour after the end of the cell isolation process (includes enzymatic and mechanical treatment).
# [4] = tested on: slow currents from large diameter DRG neurons; experiment: slow currents of large diameter DRG neurons; type: cell-based, rat; conditions: relative to sdDRGNs
# Text: The K^+ currents affected by the identified compounds, recorded from sdDRGNs (and sdTGNs) by whole-cell voltage-clamp techniques, were object of intensive research by the applicant in the area of pain neurophysiology. The use of rat pain models was fundamental to perform previous target validation, i.e., to determine the K^+ current component differentially expressed in pain conditions. […] The nature of the recorded modulatory effect on the currents was studied by monitoring several biophysical parameters, such as voltage dependencies of activation and inactivation and kinetics. The specificity of the bioactivity was carried out by comparing the pharmacological effect on currents recorded from the sdDRGNs with those in other types of dorsal root ganglia (medium and large diameter DGRs).
# Lastly, regarding specificity, it is important to note that the slow currents obtained from large diameter DRG neurons are around 10 times less sensitive to nitenin.
structure (smiles),measurement,setting,value
C/C(=C\C1C/C(=C/CCc2ccoc2)C(=O)O1)CCCc1ccoc1 (stereo not shown) [nitenin],"sensitivity to mechanical stimuli, both paws",[1],intense decrease of sensitivity to mechanical stimuli
same,"sensitivity scores, both paws",[2],never any change in sensitivity scores
same,effect on K+ currents from sdTGNs,[3],inhibited the K^+ currents
same,lower sensitivity of slow currents of large diameter DRG neurons,[4],around 10 times
